Experiment [1] addresses T1, T-type calcium channel subtype Cav3.1 (Homo sapiens, UniProt O43497).
T1 construct: expressed in transfected cells; host or cells: HEK293 cells
The experiment can be described thus: Whole-cell voltage clamp of Cav3.1 current in transfected HEK293 cells. It is filed as cell-based. On the procedure:
(§1) 1. Preparation before transfection: A flask of HEK293 cell culture was removed of the culture medium, and gently washed twice by adding 3 ml of a phosphate buffer. Then, the cells were digested by adding 1 ml of 0.25% trypsin, and pipetted by adding DMEM medium after 3-5 min to collect the cells. The cells were centrifuged at 1000 rpm for 5 min, and the supernatant was discarded. 5-10 ml of DMEM medium was added to suspend the cells. The cells were slowly pipetted again, then subcultured in a 35 mm petri dish covered with glass slides, and transfected after 24 h.
(§2) 2. Transfection: The cells were transfected by liposome transfection, where the transfection reagent was Lipofectamine 3000, and the materials used: Cav3 plasmid 1.5 μg, transfection enhancement factor (TAG) 0.25 μg, and enhanced green fluorescent protein (EGFP) 0.1 μg. 48-72 h after transfection, the whole-cell patch clamp technique was used to record fluorescent HEK293 cells, with 9-12 cells per group.
(§3) The base sequences of Cav3.1, Cav3.2 and Cav3.3 plasmids were verified by gene sequencing and confirmed by DNA Star sequence analysis and alignment software that they are respectively consistent with the sequence Nos. NM_198376.3 (Cav3.1), NM_021098.3 (Cav3.2) and NM_021096.4 (Cav3.3) published in the NCBI database.
(§4) At room temperature, Multiclamp700B amplifier was used for whole-cell voltage clamp recording. The glass electrode was a drawn electrode, and the resistance of the electrode filled with intracellular fluid was 3-5 MΩ. DigiData1322A was converted into a digital signal in pClamp10.2 software. The series resistance compensation was 70-80%. The stimulating square wave was depolarized to −30 mV with a clamping voltage of −90 mV, and then returned to the clamping potential level. The current amplitude of the T-type calcium channel at this time was recorded.
(§5) Internal pipette solution: 110 cesium chloride, 4 magnesium-ATP, 0.3 sodium-GTP, 25 HEPES, 10 EGTA. External pipette solution: 5 barium chloride, 140 tetraethylamine chloride, 5 cesium chloride, 0.5 magnesium chloride, 5.5 glucose, 10 HEPES. […]

Experiment [2] concerns the target T2, T-type calcium channel subtype Cav3.3 (Homo sapiens, UniProt Q9P0X4).
T2 construct: expressed in transfected cells; host or cells: HEK293 cells
The experiment can be described thus: Whole-cell voltage clamp of Cav3.3 current in transfected HEK293 cells. It is filed as cell-based. The settings on record: 10 μM miloxacin, step -90 mV to -30 mV. On the procedure:
as §1
2. Transfection: The cells were transfected by liposome transfection, where the transfection reagent was Lipofectamine 3000, and the materials used: Cav3 plasmid 1.5 μg, transfection enhancement factor (TAG) 0.25 μg, and enhanced green fluorescent protein (EGFP) 0.1 μg. 48-72 h after transfection, the whole-cell patch clamp technique was used to record fluorescent HEK293 cells, with 9-12 cells per group. […]
At room temperature, Multiclamp700B amplifier was used for whole-cell voltage clamp recording. […] The current amplitude of the T-type calcium channel at this time was recorded. […]

For the next experiment, the system named is T-type calcium channel. The experiment in a line: T-type calcium channel current in acutely dissociated primary rat trigeminal ganglion neurons. Format: cell-based. The text has this: Specifically, trigeminal ganglion neurons from adult male SD rats were acutely dissociated under the conditions of enzymatic hydrolysis of trigeminal ganglion neurons (Zhang Y et al., J Pineal Res, 2018, 64, e12476).
The trigeminal ganglia of male SD rats weighed about 220 g were exposed after anesthesia. The bilateral trigeminal ganglia were taken by using microscopic dissecting forceps, removed of their fiber connections, and then immediately placed in ice-cold oxygenated DMEM medium. The trigeminal ganglion in the culture medium was transferred into 3 mg/ml collagenase digestion solution, cut into pieces with microscissors, and digested at 37° C. for 45 min, and then digested in 2 mg/ml trypsin digestion solution for another 15 min. After the above operations, the digestion was terminated by adding DMEM medium containing 10% fetal bovine serum. The cells were dispersed by repeatedly pipetting, and filtered through a 40 μm cell sieve. The resulting suspension was centrifuged at 800 rpm for 3 min. After centrifugation, the supernatant was discarded, and the cell pellet was resuspended in DMEM medium. After resuspension, the cell suspension was seeded on a cover glass pre-coated with polylysine in a 24-well culture plate, and placed in an incubator at 37° C. with 5% CO2 for later use.
The process was the same as that in Example 1. […]

A further experiment deals with normal rats. The experiment in a line: Facial pain threshold of normal rats (von Frey). Format: in vivo, rat. The following applies: 10 nmol injected into trigeminal ganglion, vs. solvent group. On the procedure: Before the behavioral test, the rats were housed in a plexiglass box on a wire mesh frame to acclimate to the environment for three consecutive days, for 1 h each time. Test method: The middle part of the whisker pad was stimulated with von Frey filament at 1 g. If there were 3 escapes in 5 consecutive stimulations, the response was positive. Then, the same operation was repeated with von Frey filament at a lower level of intensity. If there was no positive response, the middle part of the whisker pad was stimulated with von Frey filament at a higher level of intensity. The minimum intensity at which a positive response occurs is taken as the facial pain threshold, that is, the facial mechanical pain threshold. • 1. Effect of miloxacin on the facial pain threshold of normal rats (without CFA induction): 20 normal rats were divided into two groups, each having 10 rats. The first group was a solvent group, and the second group was a treatment group. 10 nmol miloxacin was injected into the trigeminal ganglion of the second group of rats, and the corresponding solvent DMSO was injected into the trigeminal ganglion of the first group of rats.

Experiment [3] has as its system CFA-induced inflammatory pain model rats. The experiment in a line: Facial pain threshold of CFA-induced inflammatory pain model rats (von Frey). Format: in vivo, rat. The following applies: day 2 after CFA; for effect on facial pain threshold (mechanical hyperalgesia), CFA model: at 3 h. The procedure:
Adult healthy male SD rats weighed 200-250 g were used. Before the experiment, the animals were allowed to acclimate to the breeding environment for three days. The model was established by a routine laboratory method. CFA was injected subcutaneously into the rat's facial whisker pad at a dose of 20 μl/mouse. Individuals with hyperalgesia and swelling of […] on day 2 after CFA injection were used as the experimental subjects, that is, the rats in the experiment group. Before the behavioral test, the rats were housed in a plexiglass box on a wire mesh frame to acclimate to the environment for three consecutive days, for 1 h each time. Test method: The middle part of the whisker pad was stimulated with von Frey filament at 1 g. If there were 3 escapes in 5 consecutive stimulations, the response was positive. Then, the same operation was repeated with von Frey filament at a lower level of intensity. If there was no positive response, the middle part of the whisker pad was stimulated with von Frey filament at a higher level of intensity. The minimum intensity at which a positive response occurs is taken as the facial pain threshold, that is, the facial mechanical pain threshold. It can be seen that CFA induction can lower the facial pain threshold of rats. • 3. Effect of miloxacin on the facial pain threshold of CFA-induced inflammatory pain model rats: 27 rats with CFA-induced inflammation obtained by the above method were divided into three groups, each having 9 rats. On day 2 after CFA induction, 10 nmol miloxacin was locally injected into the trigeminal ganglion of rats in the first group, 5 nmol miloxacin was locally injected into the trigeminal ganglion of rats in the second group, and the corresponding solvent DMSO was locally injected into the trigeminal ganglion of rats in the third group. After 1 h, 3 h, 6 h, 12 h, 18 h, and 24 h, the facial pain threshold of each group was detected. […] Study on the analgesic mechanism of miloxacin in CFA-induced inflammatory pain model rats: On day 2 after CFA induction, 2 nmol TTA-P2 was locally injected into the trigeminal ganglion, and then 10 nmol miloxacin was locally injected into the trigeminal ganglion after 30 min, which was used as the TTA-P2 group. The other group was injected with the corresponding solvent DMSO, and then administered with 10 nmol miloxacin by local injection 30 min later, which was used as the solvent group. TTA-P2 is a T-type calcium channel blocker, and the solvent for TTA-P2 is DMSO.

A further experiment relates to CCI-ION model rats. The experiment in a line: Facial pain threshold of trigeminal neuropathic pain (CCI-ION) model rats (von Frey). Format: in vivo, rat. The settings on record: day 14 after model; for effect on facial pain threshold (mechanical hyperalgesia), CCI-ION model: at 3 h. The procedure: Adult healthy male SD rats weighed 200-250 g were used. Before the experiment, the animals were allowed to acclimate to the breeding environment for three days. The rats were anesthetized with 4% chloral hydrate at an injection dose of 1 ml/100 g body weight. The tongue of the anesthetized rat in a supine position was pulled out and to the right to expose the left side of the mouth. At the level of the left maxillary first molar, a longitudinal incision of about 1 cm was cut along the gingival edge of the buccal aspect, and the tissue was bluntly isolated, to carefully expose the infraorbital nerve. The proximal and distal ends of the infraorbital nerve were loosely ligated with 5-0 suture, where the distance between the two ligatures was about 2 mm, and the tension was moderate. […] The process was the same as that in Example 4. It can be seen that CCI-ION can lower the facial pain threshold of rats. • 2. Effect of miloxacin on the facial pain threshold of CCI-ION model rats: 27 CCI-ION model rats obtained by the above method were divided into three groups, each having 9 rats. On day 14 after the CCI-ION model was established, 10 nmol miloxacin was locally injected into the trigeminal ganglion of rats in the first group, 5 nmol miloxacin was locally injected into the trigeminal ganglion of rats in the second group, and the corresponding solvent DMSO was locally injected into the trigeminal ganglion of rats in the third group. After 1 h, 3 h, 6 h, 9 h, 12 h, and 24 h, the facial pain threshold of each group was detected. […] Study on the analgesic mechanism of miloxacin in CCI-ION model rats: On day 14 after the CCI-ION model was established, 2 nmol TTA-P2 was locally injected into the trigeminal ganglion, and then 10 nmol miloxacin was locally injected into the trigeminal ganglion 30 min later, which was used as the TTA-P2 group. The other group was injected with the corresponding solvent DMSO, and then administered with 10 nmol miloxacin by local injection 30 min later, which was used as the solvent group.

Experiment [4] has as its target T3, T-type calcium channel subtype Cav3.2 (Homo sapiens, UniProt O95180).
T3 construct: expressed in transfected cells; host or cells: HEK293 cells
The experiment can be described thus: Whole-cell voltage clamp of Cav3.2 current in transfected HEK293 cells. It is filed as cell-based. The procedure:
as §1, §2, §3, §4, §5

Experiment [5] deals with trigeminal ganglion neurons. The experiment can be described thus: Firing of neuronal action potential in acutely dissociated rat trigeminal ganglion neurons (current clamp). Format: cell-based. The following applies: 10 μM miloxacin, 180 pA for 1 sec; control 13.3±1.5. On the procedure: The process was the same as that in Example 2. At room temperature, Multiclamp 700B amplifier was used for whole-cell current clamp recording. A current of 180 pA was injected into the cell for 1 sec to stabilize the cell at −70 mV, and the frequency of the generated action potential was recorded. Internal pipette solution: 10 sodium chloride, 110 potassium chloride, 2 EGTA, 25 HEPES, 0.5 sodium-GTP, 4 magnesium-ATP. External pipette solution: 2 potassium chloride, 128 sodium chloride, 2 calcium chloride, 2 magnesium chloride, 30 glucose, 25 HEPES. The unit is mM, that is, millimoles/liter. 10 μM miloxacin was directly administered to the T-type calcium channel in the trigeminal ganglion neurons as the treatment group. The groups before miloxacin administration were used as control groups.

The mark [6] stands for this setting: 10 μM miloxacin, step -90 mV to -30 mV.
[7] abbreviates: 5 nmol local injection into trigeminal ganglion.
Where [8] appears, read: 10 nmol local injection into trigeminal ganglion.
Setting [9] is: 10 nmol miloxacin 30 min after 2 nmol TTA-P2, trigeminal ganglion.
Setting [10] is: 2 nmol local injection into trigeminal ganglion.

T1 sequence (O43497 1-2171 isoform O43497-5): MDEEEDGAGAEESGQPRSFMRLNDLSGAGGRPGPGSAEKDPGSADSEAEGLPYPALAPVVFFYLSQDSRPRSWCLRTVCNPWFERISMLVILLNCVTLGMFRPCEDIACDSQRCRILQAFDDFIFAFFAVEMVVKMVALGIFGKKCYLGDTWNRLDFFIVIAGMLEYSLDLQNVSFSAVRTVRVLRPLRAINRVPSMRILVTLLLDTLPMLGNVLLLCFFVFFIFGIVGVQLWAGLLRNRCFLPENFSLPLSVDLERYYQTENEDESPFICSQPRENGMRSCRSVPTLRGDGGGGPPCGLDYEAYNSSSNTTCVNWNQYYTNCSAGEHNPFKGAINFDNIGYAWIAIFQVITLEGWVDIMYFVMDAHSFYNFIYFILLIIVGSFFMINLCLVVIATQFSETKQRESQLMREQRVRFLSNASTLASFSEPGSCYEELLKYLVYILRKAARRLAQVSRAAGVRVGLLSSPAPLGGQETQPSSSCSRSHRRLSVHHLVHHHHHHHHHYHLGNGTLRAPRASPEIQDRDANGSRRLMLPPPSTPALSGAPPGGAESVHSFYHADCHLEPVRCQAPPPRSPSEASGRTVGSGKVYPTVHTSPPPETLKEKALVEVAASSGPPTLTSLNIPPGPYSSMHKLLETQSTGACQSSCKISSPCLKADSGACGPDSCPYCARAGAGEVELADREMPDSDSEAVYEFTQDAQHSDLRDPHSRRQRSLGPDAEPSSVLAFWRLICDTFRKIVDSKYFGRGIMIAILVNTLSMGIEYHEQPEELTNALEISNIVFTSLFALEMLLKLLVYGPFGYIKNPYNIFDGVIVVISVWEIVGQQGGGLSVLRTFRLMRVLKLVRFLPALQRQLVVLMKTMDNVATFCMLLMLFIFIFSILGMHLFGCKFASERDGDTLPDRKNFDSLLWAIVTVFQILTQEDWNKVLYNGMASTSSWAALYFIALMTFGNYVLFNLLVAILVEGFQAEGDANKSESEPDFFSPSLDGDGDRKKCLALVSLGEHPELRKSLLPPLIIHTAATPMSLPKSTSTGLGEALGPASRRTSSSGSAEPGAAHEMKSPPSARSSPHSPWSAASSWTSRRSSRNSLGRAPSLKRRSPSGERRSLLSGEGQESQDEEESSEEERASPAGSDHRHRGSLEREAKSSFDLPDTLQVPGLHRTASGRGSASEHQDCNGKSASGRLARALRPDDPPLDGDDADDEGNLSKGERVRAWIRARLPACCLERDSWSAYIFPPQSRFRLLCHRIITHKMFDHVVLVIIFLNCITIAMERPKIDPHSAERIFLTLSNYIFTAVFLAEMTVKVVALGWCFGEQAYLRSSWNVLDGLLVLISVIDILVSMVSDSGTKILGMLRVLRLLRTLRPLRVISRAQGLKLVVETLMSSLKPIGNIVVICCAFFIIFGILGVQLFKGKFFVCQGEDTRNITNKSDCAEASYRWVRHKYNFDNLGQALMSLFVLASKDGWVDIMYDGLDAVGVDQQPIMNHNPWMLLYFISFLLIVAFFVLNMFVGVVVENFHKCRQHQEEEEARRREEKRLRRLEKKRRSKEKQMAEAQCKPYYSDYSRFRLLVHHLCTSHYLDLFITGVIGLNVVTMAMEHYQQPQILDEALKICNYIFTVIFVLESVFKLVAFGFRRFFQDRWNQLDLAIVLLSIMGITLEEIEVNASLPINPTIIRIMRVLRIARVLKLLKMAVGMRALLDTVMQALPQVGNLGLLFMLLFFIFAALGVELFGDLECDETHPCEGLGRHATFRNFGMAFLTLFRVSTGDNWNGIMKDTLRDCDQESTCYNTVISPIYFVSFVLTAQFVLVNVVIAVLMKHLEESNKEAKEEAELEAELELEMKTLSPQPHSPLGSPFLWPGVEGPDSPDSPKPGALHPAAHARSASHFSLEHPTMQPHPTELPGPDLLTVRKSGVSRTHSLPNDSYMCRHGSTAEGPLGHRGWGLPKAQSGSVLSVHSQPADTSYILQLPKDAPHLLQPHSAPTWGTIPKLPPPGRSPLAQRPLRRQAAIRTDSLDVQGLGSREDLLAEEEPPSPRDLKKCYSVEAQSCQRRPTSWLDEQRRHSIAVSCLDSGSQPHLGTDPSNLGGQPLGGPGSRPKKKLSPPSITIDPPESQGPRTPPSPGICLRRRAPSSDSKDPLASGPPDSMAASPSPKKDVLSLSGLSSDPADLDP
T3 sequence (O95180 whole entry): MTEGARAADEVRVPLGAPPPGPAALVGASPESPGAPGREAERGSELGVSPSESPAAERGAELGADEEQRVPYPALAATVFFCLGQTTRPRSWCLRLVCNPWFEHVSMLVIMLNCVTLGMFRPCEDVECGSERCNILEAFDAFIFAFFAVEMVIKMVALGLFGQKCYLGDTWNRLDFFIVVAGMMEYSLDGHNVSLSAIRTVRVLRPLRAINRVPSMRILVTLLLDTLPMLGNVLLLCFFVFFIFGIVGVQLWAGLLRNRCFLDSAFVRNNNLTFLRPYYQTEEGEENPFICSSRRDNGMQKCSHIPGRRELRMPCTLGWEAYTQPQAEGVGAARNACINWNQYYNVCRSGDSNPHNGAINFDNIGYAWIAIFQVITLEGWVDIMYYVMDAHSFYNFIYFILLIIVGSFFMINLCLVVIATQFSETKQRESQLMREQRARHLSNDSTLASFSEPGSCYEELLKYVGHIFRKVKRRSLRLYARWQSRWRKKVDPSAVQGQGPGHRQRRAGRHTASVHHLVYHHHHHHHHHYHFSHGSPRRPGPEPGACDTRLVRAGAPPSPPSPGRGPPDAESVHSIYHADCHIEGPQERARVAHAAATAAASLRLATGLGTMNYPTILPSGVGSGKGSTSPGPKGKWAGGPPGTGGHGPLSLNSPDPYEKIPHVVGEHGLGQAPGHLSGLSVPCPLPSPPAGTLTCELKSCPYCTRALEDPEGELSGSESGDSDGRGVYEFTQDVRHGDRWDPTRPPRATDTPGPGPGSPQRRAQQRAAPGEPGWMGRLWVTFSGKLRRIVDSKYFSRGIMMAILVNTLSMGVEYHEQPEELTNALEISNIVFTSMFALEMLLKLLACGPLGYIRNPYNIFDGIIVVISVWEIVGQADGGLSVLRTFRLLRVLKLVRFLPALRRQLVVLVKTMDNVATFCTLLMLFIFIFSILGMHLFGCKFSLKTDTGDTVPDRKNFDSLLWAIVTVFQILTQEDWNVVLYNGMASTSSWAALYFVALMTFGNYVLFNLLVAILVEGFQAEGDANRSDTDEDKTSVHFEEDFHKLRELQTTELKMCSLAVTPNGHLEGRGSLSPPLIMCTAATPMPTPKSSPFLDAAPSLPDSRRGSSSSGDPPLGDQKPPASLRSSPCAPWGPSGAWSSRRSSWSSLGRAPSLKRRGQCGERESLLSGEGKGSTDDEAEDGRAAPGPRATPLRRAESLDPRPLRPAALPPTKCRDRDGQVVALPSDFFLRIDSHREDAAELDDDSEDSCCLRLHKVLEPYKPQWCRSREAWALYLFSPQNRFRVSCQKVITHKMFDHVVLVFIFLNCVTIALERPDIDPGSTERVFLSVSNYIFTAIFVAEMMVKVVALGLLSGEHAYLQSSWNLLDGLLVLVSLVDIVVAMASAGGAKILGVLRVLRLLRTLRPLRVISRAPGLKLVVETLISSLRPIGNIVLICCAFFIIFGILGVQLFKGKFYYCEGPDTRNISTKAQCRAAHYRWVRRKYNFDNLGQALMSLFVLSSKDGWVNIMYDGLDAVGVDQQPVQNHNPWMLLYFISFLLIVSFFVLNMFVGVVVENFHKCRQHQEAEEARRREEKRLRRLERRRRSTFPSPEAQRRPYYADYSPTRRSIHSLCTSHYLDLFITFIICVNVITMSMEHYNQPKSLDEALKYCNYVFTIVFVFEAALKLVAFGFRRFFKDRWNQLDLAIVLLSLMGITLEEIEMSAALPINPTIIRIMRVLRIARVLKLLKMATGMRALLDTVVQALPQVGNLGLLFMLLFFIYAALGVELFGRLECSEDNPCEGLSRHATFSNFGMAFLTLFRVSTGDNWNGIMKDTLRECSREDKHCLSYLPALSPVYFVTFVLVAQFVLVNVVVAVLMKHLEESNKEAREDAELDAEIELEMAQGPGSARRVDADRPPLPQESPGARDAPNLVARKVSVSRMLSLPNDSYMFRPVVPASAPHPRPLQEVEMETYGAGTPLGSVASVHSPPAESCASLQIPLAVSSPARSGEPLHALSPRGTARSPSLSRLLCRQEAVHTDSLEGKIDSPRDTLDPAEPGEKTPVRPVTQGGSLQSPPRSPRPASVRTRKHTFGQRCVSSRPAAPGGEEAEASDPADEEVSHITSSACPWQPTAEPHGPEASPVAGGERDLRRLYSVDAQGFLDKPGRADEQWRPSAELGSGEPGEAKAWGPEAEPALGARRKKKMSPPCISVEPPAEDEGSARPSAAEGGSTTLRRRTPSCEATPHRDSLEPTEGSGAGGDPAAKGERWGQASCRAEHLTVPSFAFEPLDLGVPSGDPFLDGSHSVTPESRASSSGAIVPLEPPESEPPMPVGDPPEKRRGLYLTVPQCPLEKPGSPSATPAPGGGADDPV

Take `COn1cc(C(=O)O)c(=O)c2cc3c(cc21)OCO3` [miloxacin]: the “inactivation constant V1/2 of subtype Cav3.1, left shift” value in experiment [1] (10 μM miloxacin vs. control) is on record as 6.5±0.7 mV. Also, in experiment [1] (setting [6]), the “subtype Cav3.1 current reduced compared to control” value was 49.6±2.9%. Further, the IC50 (as a rule, the concentration that gives 50% inhibition) worked out at 6.5 ± 0.9 µM in experiment [1] (dose-effect curve), 7.7 ± 0.6 µM in the experiment with T-type calcium channel (dose-effect curve) and 8.2 ± 0.6 µM in experiment [4] (dose-effect curve). Further, the “subtype Cav3.3 current reduced compared to control” value in experiment [2] is 2.1±0.7%. In the experiment on T-type calcium channel (10 μM miloxacin), the “T-type calcium channel current reduced compared to control” value is 52.7±2.6%. In the experiment with normal rats, the “effect on facial pain threshold of normal rats” value was “does not affect the facial pain threshold”. The “effect on facial pain threshold (mechanical hyperalgesia), CFA model” value in experiment [3] (setting [7]) and in experiment [3] (setting [8]) was “significantly reversed mechanical hyperalgesia” throughout. For the same compound, the “effect of miloxacin after TTA-P2 on facial pain threshold, CFA model” value in experiment [3] (setting [9]) is recorded as “does not further increase the facial pain threshold”. Also, the “effect on facial pain threshold (mechanical hyperalgesia), CCI-ION model” value in the experiment on CCI-ION model rats (setting [7]) and in the experiment on CCI-ION model rats (setting [8]) was “significantly reversed mechanical hyperalgesia” each time. Further, in the experiment on CCI-ION model rats (setting [9]), the “effect of miloxacin after TTA-P2 on facial pain threshold, CCI-ION model” value is recorded as “does not further increase the facial pain threshold”. Further, the “inactivation constant V1/2 of subtype Cav3.2, left shift” value in experiment [4] (10 μM miloxacin vs. control) came to 8.5±0.3 mV. Besides, the “subtype Cav3.2 current reduced compared to control” value in experiment [4] (setting [6]) is recorded as 57.2±3.3%. In experiment [5], the “action potential (number in a 1-sec stimulation course)” value came out at 6.1±0.3.

With `CC1(C)C[C@@H](CN2CCC(F)(CNC(=O)c3cc(Cl)cc(Cl)c3)CC2)CCO1` [TTA-P2, 3,5-dichloro-N-[[4-fluoro-1-[[(4S)-tetrahydro-2,2-dimethyl-2H-pyran-4-yl]methyl]-4-piperidine]methyl]benzamide], the “effect of TTA-P2 on facial pain threshold, CFA model” value in experiment [3] (setting [10]) was “can increase the facial pain threshold”. Moreover, the “effect of TTA-P2 on facial pain threshold, CCI-ION model” value in the experiment with CCI-ION model rats (setting [10]) is on record as “can increase the facial pain threshold”.

Source of the values: patent US12239640B2, “Use of miloxacin in preparation of medicines for treating and/or preventing diseases with T-type calcium channels as therapeutic target” (SOOCHOW UNIVERSITY, priority 2020, dated 2025).
